Measurements reported in patent publication US7119256B2, “Gene encoding acetolactate synthase” (priority 2000, dated 2006).

Assays:
W548L mutant ALS = molecular target: T1, W548L mutant ALS (Oryza sativa subsp. japonica, UniProt Q6K2E8, W548L); assay: Herbicide sensitivity of crude ALS with W548L mutation only, 1 mM valine; format: biochemical, rice; conditions: crude enzyme
T1 construct: one type of cDNA containing a full length ALS gene could be obtained from a cDNA library derived from the wild type; made in house; host or cells: E. coli JM 109, pGEX-2T backbone (pGEX-2T-wALS); crude enzyme solution
T1 sequence (Q6K2E8 44-644 W548L): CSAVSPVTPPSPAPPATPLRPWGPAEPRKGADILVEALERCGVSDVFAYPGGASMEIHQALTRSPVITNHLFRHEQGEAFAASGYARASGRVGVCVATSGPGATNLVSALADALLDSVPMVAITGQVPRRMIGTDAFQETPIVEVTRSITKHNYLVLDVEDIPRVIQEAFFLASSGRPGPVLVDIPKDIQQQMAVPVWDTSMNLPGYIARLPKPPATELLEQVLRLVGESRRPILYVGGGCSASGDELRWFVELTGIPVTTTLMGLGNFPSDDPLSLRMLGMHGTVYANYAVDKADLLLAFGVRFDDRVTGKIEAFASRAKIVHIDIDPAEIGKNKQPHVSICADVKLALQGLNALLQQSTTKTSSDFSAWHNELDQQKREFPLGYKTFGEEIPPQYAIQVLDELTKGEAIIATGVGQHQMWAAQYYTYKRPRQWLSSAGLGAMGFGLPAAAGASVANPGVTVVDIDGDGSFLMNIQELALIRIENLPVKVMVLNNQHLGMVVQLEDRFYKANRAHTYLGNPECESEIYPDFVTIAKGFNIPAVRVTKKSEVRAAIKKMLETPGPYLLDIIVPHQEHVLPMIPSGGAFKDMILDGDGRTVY
Protocol: (§1) A plasmid having W548L mutant ALS gene or a plasmid having S627I mutant ALS gene was transformed into E. coli strain JM 109. The colonies obtained from transformation were subjected to liquid culture, expression of GST induction protein was induced in the same manner as in Examples 4 and 5, a crude enzyme solution was prepared, and then herbicide sensitivity of ALS was examined in the presence of 1 mM valine.

mutant ALS protein [1] = molecular target: mutant ALS protein (Oryza sativa subsp. japonica, UniProt Q6K2E8, S627I/W548L); assay: Herbicide sensitivity of ALS partially purified from the resistant mutant (acetoin colorimetric ALS activity); format: biochemical, rice (Kinmaze); parameters: from tissue; host or cells: resistant mutant rice (Kinmaze) cultured cells, liquid culture; ammonium sulfate, Sephadex G-25, HiTrap Q
Sequence of mutant ALS protein (Oryza sativa subsp. japonica, UniProt Q6K2E8, S627I/W548L) (Q6K2E8 44-644 W548L/S627I): as the sequence (Q6K2E8 44-644 W548L) above, with S584I counted along it
Protocol: (§2) First, 200 g or more of resistant mutant was prepared by a liquid culture method (no supplementation with bispyribac-sodium), the culture having a composition as shown in Table 1 but without Gelrite. Then, about 150 g of the resistant mutant was homogenized using Hiscotron in a volume of buffer-1 [100 mM potassium phosphate buffer (pH 7.5) containing 20% (v/v) glycerol, 0.5 mM thiamin pyrophosphate (TPP), 10 μM flavin adenine dinucleotide (FAD), 0.5 mM MgCl2, and a volume of polyvinyl polypyrrolidone one-tenth that of tissue volume] 3-fold greater than tissue volume. The homogenate was filtered through nylon gauze, and then centrifuged at 15,000×g for 20 min. Ammonium sulfate was added to the centrifuged supernatant to 50% saturation, and then allowed to stand in ice for approximately 1 hour. The mixture was again centrifuged at 15,000×g for 20 min, and then the precipitated fraction was dissolved in about 30 ml of buffer-2 [10 mM Tris hydrochloric acid buffer (pH 7.5) containing 20% (v/v) glycerol, 0.5 mM TPP and 0.5 mM MgCl2]. […]
(§3) Next, the protein concentration of the crude enzyme solution was measured by the Bradford method according to the manual of Bio-Rad Protein Assay. […]
(§4) ALS activity resulting from the mutant ALS protein contained in the eluted fractions apportioned into each test tube for apportion was measured as follows. A reaction solution to be used in a measurement reaction was prepared by mixing an eluted fraction to be measured with a solution comprising 20 mM sodium pyruvate, 0.5 mM TPP, 0.5 mM MgCl2, 10 μM FAD and 20 mM potassium phosphate buffer (pH 7.5). […] After the eluted fraction to be measured was added, the measurement reaction was performed at 30° C. for 40 to 60 min. […]
(§5) Then, to quantify acetoin contained in the reaction solution, 1 ml of 0.5% (w/v) creatine and 1 ml of 5% (w/v) α-naphthol dissolved in 2.5 N sodium hydroxide was added to the reaction solution, followed by incubation at 37° C. for 10 min. Acetoin was then quantified by color comparison of the absorbance (at 525 nm) of the reaction solution, thereby evaluating ALS activity. […]

S627I mutant ALS = molecular target: T2, S627I mutant ALS (Oryza sativa subsp. japonica, UniProt Q6K2E8, S627I); assay: Herbicide sensitivity of crude ALS with S627I mutation only, 1 mM valine; format: biochemical, rice; conditions: crude enzyme
T2 construct: one type of cDNA containing a full length ALS gene could be obtained from a cDNA library derived from the wild type; made in house; host or cells: E. coli JM 109, pGEX-2T backbone; crude enzyme solution
T2 sequence (Q6K2E8 44-644 S627I): as the sequence (Q6K2E8 44-644 W548L) above, with L505W, S584I counted along it
Protocol: as §1

mutant ALS protein [2] = assay: Herbicide sensitivity of ALS partially purified from the resistant mutant (acetoin colorimetric ALS activity); format: biochemical, rice (Kinmaze)
Protocol: as §2, §3, §4, §5

wild type ALS protein = molecular target: T3, wild type ALS protein (Oryza sativa subsp. japonica, UniProt Q6K2E8); assay: Herbicide sensitivity of partially purified wild type ALS protein (acetoin colorimetric ALS activity); format: biochemical, rice (Kinmaze); parameters: the wild type ALS protein was separated and purified in the same manner and used for the experiment; from tissue; host or cells: wild type rice (Kinmaze) cultured cells, liquid culture; ammonium sulfate, Sephadex G-25, HiTrap Q
T3 sequence (Q6K2E8 44-644): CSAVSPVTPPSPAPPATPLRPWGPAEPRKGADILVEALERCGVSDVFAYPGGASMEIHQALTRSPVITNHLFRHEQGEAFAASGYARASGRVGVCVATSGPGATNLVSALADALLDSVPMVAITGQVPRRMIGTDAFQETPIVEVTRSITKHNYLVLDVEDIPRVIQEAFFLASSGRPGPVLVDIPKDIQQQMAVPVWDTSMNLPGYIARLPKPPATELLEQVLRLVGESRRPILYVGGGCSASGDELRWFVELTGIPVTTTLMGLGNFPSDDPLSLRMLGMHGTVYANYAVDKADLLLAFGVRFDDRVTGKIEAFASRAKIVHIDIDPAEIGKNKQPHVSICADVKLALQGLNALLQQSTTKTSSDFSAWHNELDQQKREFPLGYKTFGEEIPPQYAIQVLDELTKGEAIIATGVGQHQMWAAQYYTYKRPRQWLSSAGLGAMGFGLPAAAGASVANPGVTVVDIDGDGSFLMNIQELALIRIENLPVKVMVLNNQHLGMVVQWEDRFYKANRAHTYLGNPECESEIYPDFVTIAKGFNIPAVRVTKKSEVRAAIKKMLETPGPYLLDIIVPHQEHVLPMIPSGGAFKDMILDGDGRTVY

Structure (SMILES)	resistance imparted by W548L mutation alone (W548L mutant ALS)	IC50 (mutant ALS protein [1])	resistance imparted by S627I mutation alone (S627I mutant ALS)	RS ratio Resistant mutant: I50 (resistant mutant)/I50 (wild type) (mutant ALS protein [2])	IC50 (wild type ALS protein)
COc1cc(OC)nc(Oc2cccc(Oc3nc(OC)cc(OC)n3)c2C(=O)[O-])n1.[Na+] [Bispyribac-sodium, bispyribac-sodium]	imparted resistance	421 nM	imparted resistance	74.8	5.63 nM
COc1nc(C)nc(NC(=O)NS(=O)(=O)c2ccccc2Cl)n1 [Chlorsulfuron, chlorsulfuron]	imparted resistance	92.8 nM	imparted no obvious resistance	5.36	17.3 nM
